We go through 7 molecules from patent US20240400577A1, “MODULATORS OF PROTEIN KINASES” (VIBLIOME THERAPEUTICS, LLC, priority 2021, published 2024).

By inhibition is commonly meant the share of the control response that was lost under treatment. Low values mean a response near the control, high ones a response far below the control. The term IC50 denotes the point on the concentration scale where inhibition reaches its midpoint.

Holding throughout (experiment): Kinase panel enzymatic inhibition assay (Nanosyn)
Assay type in all cases: biochemical

The target of one test is T1, ARAF (Homo sapiens, UniProt P10398).
T1 construct: purchased Nanosyn (contract screening)
T1 sequence (P10398 1-606): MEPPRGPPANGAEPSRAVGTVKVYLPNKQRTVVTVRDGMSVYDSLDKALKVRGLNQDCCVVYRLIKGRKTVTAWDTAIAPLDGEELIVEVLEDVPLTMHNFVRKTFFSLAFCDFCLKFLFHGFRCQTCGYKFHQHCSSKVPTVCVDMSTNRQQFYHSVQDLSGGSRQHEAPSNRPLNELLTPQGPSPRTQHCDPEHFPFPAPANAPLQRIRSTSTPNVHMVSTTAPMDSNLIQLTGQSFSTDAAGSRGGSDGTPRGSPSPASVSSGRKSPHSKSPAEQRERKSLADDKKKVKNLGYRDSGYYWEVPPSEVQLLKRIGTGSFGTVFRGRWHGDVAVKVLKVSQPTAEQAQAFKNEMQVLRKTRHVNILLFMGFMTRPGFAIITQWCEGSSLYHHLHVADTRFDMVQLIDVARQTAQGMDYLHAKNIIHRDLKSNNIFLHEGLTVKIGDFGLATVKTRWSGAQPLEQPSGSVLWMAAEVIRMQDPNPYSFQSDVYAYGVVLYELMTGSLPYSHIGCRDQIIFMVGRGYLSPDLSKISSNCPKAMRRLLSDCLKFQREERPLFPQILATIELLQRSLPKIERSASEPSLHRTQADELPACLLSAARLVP
To be noted: compound 5 μM; ATP at Km; 30-minute pre-incubation. The procedure: (§1) The disclosed compounds were tested for activity against a panel of at least 300 kinases. Kinase panel screening was conducted by Nanosyn (Santa Clara, CA 95051) using an enzymatic inhibition assay accepted as valid by those skilled in the art (e.g., the Caliper LabChip® mobility shift assay, an ADP detection assay, or time-resolved fluorescence detection technology. Compounds were screened at a concentration of 5 μM using an ATP concentration at the Km for each of the respective kinases and a 30-minute pre-incubation time-point.
(§2) In Table 1 and 2, kinase inhibition is classified by: A=95% or greater, B=90%-94%, C=80%-89%, and D=79% and less with a compound concentration of 5 JIM. In Table 3 and 4, kinase inhibition is reported in terms of IC50 values corresponding to A=less than 500 nm, B=500 nm to less than 1 μM, C=1 μM to less than 10 μM, and D=10 μM or greater using a compound concentration of 5 μM.

The next test addresses T2, BRAF (Homo sapiens, UniProt P15056).
T2 construct: purchased Nanosyn (contract screening)
As to conditions: compound 5 μM; ATP at Km; 30-minute pre-incubation. The procedure:
as §1, §2

In a further test the target is T3, BRK (Homo sapiens, UniProt Q13882).
T3 construct: purchased Nanosyn (contract screening)
As to conditions: compound 5 μM; ATP at Km; 30-minute pre-incubation. The procedure:
as §1, §2

The next test has as its target T4, CSF1R (Homo sapiens, UniProt P07333).
T4 construct: purchased Nanosyn (contract screening)
As to conditions: compound 5 μM; ATP at Km; 30-minute pre-incubation. As for the experimental part:
as §1, §2

A further test has as its target T5, DDR1 (Homo sapiens, UniProt Q08345).
T5 construct: purchased Nanosyn (contract screening)
As to conditions: ATP at Km, 30-minute pre-incubation; for inhibition at 5 µM: compound 5 μM; for IC50: read-out: kinase inhibition in terms of IC50, DDR1. As for the experimental part: as §1, §2

In a further test the target is T6, FGR (Homo sapiens, UniProt P09769).
T6 construct: purchased Nanosyn (contract screening)
As to conditions: compound 5 μM; ATP at Km; 30-minute pre-incubation. As for the experimental part: as §1, §2

In the next test the target is T7, KDR (Homo sapiens, UniProt P35968).
T7 construct: purchased Nanosyn (contract screening)
As to conditions: compound 5 μM; ATP at Km; 30-minute pre-incubation. As for the experimental part:
as §1, §2

The next test has as its target T8, KIT (Homo sapiens, UniProt P10721).
T8 construct: purchased Nanosyn (contract screening)
As to conditions: compound 5 μM; ATP at Km; 30-minute pre-incubation. As for the experimental part:
as §1, §2

In another test the target is T9, LCK (Homo sapiens, UniProt P06239).
T9 construct: purchased Nanosyn (contract screening)
To be noted: ATP at Km, 30-minute pre-incubation; for inhibition at 5 µM: compound 5 μM; for IC50: read-out: kinase inhibition in terms of IC50, LCK. The procedure:
as §1, §2

Another test deals with T10, LYNb (Homo sapiens, UniProt P07948).
T10 construct: purchased Nanosyn (contract screening)
To be noted: compound 5 μM; ATP at Km; 30-minute pre-incubation. The procedure: as §1, §2

The next test addresses T11, MNK2 (Homo sapiens, UniProt Q9HBH9).
T11 construct: Nanosyn (contract laboratory that ran the panel)
As to conditions: compound 5 μM; ATP at Km; 30-minute pre-incubation. The procedure:
as §1, §2

In a further test the target is T12, PDGFRb (Homo sapiens, UniProt P09619).
T12 construct: Nanosyn (contract laboratory that ran the panel)
As to conditions: compound 5 μM; ATP at Km; 30-minute pre-incubation. The procedure: as §1, §2

The target in the next test is T13, PKCb1 (Homo sapiens, UniProt P05771).
T13 construct: Nanosyn (contract laboratory that ran the panel)
To be noted: compound 5 μM; ATP at Km; 30-minute pre-incubation. The procedure:
as §1, §2

The target of another test is T14, RET (Homo sapiens, UniProt P07949).
T14 construct: Nanosyn (contract laboratory that ran the panel)
To be noted: compound 5 μM; ATP at Km; 30-minute pre-incubation. As for the experimental part: as §1, §2

A further test has as its target T15, SGK2 (Homo sapiens, UniProt Q9HBY8).
T15 construct: Nanosyn (contract laboratory that ran the panel)
T15 sequence (Q9HBY8 1-367): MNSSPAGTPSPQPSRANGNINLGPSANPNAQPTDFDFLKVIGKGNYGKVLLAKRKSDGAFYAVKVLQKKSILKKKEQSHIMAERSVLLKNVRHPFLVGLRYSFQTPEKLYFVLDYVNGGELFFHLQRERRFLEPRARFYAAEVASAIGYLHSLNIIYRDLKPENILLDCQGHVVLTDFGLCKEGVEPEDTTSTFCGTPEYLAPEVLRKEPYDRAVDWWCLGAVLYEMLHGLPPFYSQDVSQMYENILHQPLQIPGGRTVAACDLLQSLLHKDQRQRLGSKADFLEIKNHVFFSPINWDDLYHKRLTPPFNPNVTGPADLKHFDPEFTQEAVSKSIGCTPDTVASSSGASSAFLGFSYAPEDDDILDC
As to conditions: compound 5 μM; ATP at Km; 30-minute pre-incubation. The procedure:
as §1, §2

For a further test, the target named is T16, SRC (Homo sapiens, UniProt P12931).
T16 construct: Nanosyn (contract laboratory that ran the panel)
To be noted: compound 5 μM; ATP at Km; 30-minute pre-incubation. As for the experimental part: as §1, §2

Another test has as its target T17, TNIK (Homo sapiens, UniProt Q9UKE5).
T17 construct: Nanosyn (contract laboratory that ran the panel)
As to conditions: compound 5 μM; ATP at Km; 30-minute pre-incubation. The procedure:
as §1, §2

For another test, the target named is T18, YES (Homo sapiens, UniProt P07947).
T18 construct: Nanosyn (contract laboratory that ran the panel)
To be noted: compound 5 μM; ATP at Km; 30-minute pre-incubation. As for the experimental part: as §1, §2

In another test the target is T19, ZAK (Homo sapiens, UniProt Q9NYL2).
T19 construct: Nanosyn (contract laboratory that ran the panel)
As to conditions: compound 5 μM; ATP at Km; 30-minute pre-incubation. The procedure:
as §1, §2

The next test has as its target T20, p38a (Homo sapiens, UniProt Q16539).
T20 construct: Nanosyn (contract laboratory that ran the panel)
To be noted: compound 5 μM; ATP at Km; 30-minute pre-incubation. As for the experimental part: as §1, §2

For a further test, the target named is T21, p38b (Homo sapiens, UniProt Q15759).
T21 construct: Nanosyn (contract laboratory that ran the panel)
To be noted: compound 5 μM; ATP at Km; 30-minute pre-incubation. The procedure: as §1, §2

T17 sequence (Q9UKE5 whole entry): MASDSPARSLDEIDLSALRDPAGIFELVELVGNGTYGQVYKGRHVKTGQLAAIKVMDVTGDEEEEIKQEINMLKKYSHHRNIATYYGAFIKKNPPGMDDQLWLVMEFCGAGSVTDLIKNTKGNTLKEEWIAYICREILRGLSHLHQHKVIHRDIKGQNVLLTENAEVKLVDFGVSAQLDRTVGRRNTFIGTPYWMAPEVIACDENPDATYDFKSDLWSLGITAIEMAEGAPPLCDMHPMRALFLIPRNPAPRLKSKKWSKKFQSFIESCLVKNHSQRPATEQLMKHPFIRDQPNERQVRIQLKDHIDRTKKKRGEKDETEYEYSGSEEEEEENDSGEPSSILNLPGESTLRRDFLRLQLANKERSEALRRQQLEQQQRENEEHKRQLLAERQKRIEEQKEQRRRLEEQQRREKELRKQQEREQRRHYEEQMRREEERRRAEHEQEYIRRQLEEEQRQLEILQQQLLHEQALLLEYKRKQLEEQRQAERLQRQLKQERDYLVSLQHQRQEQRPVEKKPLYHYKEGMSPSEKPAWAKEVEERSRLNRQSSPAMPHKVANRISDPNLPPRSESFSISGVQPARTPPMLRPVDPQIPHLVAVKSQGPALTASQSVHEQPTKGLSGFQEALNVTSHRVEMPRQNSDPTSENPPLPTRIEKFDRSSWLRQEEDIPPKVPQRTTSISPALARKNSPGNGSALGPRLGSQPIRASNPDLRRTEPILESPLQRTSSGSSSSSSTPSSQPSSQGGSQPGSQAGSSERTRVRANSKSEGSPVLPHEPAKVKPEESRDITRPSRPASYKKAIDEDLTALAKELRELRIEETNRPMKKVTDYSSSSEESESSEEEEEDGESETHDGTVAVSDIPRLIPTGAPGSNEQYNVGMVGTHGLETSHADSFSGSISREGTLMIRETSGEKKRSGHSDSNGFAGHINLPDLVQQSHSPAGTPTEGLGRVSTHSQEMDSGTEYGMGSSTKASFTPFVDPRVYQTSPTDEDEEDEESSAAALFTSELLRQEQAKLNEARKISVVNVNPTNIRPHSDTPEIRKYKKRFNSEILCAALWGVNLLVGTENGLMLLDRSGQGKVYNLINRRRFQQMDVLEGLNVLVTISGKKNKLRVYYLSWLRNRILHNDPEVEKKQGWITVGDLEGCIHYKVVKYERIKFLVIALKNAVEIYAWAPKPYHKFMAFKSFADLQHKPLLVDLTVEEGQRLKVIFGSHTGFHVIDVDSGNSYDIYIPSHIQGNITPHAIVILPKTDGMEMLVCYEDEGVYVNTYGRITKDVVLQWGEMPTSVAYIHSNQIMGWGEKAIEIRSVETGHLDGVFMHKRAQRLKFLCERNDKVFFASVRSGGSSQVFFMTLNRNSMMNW
T6 sequence (P09769 whole entry): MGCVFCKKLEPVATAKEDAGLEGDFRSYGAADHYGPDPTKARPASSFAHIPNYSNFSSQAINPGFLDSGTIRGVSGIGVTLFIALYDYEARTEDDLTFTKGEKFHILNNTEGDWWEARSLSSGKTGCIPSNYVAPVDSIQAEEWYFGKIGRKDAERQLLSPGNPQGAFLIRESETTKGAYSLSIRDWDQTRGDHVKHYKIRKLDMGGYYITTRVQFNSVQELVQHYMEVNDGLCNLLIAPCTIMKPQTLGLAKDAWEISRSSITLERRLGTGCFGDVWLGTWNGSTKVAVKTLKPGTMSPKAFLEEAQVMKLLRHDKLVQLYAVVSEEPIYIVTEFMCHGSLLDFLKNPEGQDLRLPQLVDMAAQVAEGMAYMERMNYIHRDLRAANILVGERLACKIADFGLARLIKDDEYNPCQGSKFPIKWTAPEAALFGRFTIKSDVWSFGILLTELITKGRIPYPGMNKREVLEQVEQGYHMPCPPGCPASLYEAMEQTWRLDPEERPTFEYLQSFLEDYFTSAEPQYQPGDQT
T10 sequence (P07948 1-491 isoform P07948-2): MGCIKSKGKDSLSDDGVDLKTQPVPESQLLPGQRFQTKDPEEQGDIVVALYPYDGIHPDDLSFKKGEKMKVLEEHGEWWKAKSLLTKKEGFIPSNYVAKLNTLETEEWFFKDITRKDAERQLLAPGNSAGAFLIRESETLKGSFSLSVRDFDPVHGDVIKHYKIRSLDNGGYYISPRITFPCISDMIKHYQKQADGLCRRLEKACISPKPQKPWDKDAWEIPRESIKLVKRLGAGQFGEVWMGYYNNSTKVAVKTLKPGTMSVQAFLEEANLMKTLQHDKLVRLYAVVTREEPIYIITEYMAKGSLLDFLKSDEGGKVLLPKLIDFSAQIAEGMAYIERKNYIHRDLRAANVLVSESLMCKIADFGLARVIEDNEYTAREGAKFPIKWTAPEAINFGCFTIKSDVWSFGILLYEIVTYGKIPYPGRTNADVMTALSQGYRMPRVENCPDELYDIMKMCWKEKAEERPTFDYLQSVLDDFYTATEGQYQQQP
T5 sequence (Q08345 19-913): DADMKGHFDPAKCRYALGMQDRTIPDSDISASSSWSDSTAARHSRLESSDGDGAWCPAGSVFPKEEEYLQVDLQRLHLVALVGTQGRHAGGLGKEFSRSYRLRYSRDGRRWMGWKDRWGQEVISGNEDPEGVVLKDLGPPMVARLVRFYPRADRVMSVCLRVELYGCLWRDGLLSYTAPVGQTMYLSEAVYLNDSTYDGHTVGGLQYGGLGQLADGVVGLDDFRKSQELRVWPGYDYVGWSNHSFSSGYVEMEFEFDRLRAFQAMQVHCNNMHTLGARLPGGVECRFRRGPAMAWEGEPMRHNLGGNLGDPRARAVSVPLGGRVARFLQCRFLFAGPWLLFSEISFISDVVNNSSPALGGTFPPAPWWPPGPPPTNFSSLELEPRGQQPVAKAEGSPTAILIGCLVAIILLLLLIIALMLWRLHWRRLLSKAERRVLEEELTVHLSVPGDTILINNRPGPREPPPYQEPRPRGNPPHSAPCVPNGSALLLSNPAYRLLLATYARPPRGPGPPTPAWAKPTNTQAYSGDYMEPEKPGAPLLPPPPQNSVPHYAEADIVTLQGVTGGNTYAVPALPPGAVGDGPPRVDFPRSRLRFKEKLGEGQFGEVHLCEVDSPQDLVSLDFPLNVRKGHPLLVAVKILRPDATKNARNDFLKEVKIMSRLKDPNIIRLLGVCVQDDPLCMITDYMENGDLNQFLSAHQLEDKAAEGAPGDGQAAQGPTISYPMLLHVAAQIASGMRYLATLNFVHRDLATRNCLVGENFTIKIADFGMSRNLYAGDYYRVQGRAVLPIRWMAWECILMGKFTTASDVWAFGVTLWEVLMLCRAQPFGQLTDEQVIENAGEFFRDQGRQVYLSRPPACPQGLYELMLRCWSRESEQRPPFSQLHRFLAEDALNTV
T4 sequence (P07333 20-972): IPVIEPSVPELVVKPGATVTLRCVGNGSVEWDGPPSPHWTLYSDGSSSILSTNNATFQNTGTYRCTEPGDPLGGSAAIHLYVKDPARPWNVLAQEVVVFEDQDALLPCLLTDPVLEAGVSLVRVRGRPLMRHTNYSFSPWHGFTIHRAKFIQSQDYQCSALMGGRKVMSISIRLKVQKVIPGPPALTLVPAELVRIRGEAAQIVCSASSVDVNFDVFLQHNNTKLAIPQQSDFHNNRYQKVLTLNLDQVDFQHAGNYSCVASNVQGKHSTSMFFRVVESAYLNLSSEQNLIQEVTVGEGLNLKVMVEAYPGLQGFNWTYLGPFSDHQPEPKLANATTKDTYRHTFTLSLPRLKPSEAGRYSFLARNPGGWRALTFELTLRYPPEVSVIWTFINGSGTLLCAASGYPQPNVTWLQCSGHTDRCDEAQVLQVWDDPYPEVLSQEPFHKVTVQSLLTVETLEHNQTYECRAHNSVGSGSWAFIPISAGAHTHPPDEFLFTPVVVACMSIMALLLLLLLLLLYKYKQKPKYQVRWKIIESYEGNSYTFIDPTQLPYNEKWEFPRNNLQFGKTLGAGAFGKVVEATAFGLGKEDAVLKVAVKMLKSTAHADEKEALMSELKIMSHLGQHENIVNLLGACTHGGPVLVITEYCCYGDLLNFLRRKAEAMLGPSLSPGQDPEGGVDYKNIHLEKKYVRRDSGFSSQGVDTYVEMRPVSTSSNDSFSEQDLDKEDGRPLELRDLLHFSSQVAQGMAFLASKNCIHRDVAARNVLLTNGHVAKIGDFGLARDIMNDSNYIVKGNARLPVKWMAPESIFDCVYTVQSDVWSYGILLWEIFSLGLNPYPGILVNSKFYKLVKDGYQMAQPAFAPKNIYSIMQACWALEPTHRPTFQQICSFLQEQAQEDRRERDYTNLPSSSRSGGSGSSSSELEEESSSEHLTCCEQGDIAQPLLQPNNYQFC
T9 sequence (P06239 whole entry): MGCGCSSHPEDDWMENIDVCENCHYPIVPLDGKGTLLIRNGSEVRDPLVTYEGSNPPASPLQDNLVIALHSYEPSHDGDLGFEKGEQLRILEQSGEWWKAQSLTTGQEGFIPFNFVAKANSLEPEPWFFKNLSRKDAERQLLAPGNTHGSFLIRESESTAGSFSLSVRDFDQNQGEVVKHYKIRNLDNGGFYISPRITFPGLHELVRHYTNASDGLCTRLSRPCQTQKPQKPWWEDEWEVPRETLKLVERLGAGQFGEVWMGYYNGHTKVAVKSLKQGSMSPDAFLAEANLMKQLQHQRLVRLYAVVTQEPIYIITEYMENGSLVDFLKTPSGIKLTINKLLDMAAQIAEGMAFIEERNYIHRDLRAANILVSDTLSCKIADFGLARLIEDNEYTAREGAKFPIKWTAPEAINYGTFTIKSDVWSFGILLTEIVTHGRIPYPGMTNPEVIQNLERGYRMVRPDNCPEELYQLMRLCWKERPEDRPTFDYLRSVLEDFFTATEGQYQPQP

Regarding `Cc1ccc(NC(=O)c2cc(S(C)(=O)=O)n(-c3ccc(F)cc3)n2)cc1Nc1ccc2ncn(C)c(=O)c2c1` [Ex4, 1-(4-fluorophenyl)-N-(4-methyl-3-((3-methyl-4-oxo-3,4-dihydroquinazolin-6-yl)amino)phenyl)-5-(methylsulfonyl)-1H-pyrazole-3-carboxamide], the inhibition at 5 µM on ARAF was no less than 95%; against BRAF, no less than 95%; against BRK, less than 79%; against CSF1R it was less than 79%; against DDR1, less than 79%; at FGR, less than 79%. The inhibition at 5 µM on KDR is less than 79%; on KIT it was 90 to 94%; against LCK, less than 79%; on LYNb, less than 79%; on MNK2 it was less than 79%; at PDGFRb, 80 to 89%. Moreover, the inhibition at 5 µM was less than 79% at PKCb1; 90 to 94% on RET; less than 79% against SGK2; less than 79% against SRC; less than 79% against TNIK; less than 79% against YES. The inhibition at 5 µM at ZAK is less than 79%; on p38a, 80 to 89%; against p38b it was less than 79%.

In the case of `Cc1ccc(NC(=O)c2cc([S+](C)[O-])n(-c3ccc(F)cc3)n2)cc1Nc1ccc2ncn(C)c(=O)c2c1` (centres unmarked) [Ex5, 1-(4-fluorophenyl)-N-(4-methyl-3-((3-methyl-4-oxo-3,4-dihydroquinazolin-6-yl)amino)phenyl)-5-(methylsulfinyl)-1H-pyrazole-3-carboxamide], the inhibition at 5 µM at ARAF was no less than 95%; against BRAF, no less than 95%; at BRK it was less than 79%; at CSF1R, less than 79%; against DDR1, 90 to 94%; against FGR, less than 79%. The inhibition at 5 µM was less than 79% against KDR; 80 to 89% on KIT; 90 to 94% at LCK; 90 to 94% against LYNb; less than 79% on MNK2; less than 79% on PDGFRb. The inhibition at 5 µM against PKCb1, against RET, against SGK2, against SRC, on TNIK and against YES was less than 79% throughout. The inhibition at 5 µM against ZAK was less than 79%; at p38a it was no less than 95%; against p38b, 80 to 89%.

As to `Cc1ccc(NC(=O)c2cc([S+](C)[O-])n(-c3ccc(F)cc3)n2)cc1C#Cc1cnc2cccnn12` (centres unmarked) [Ex6, 1-(4-fluorophenyl)-N-(3-(imidazo[1,2-b]pyridazin-3-ylethynyl)-4-methylphenyl)-5-(methylsulfinyl)-1H-pyrazole-3-carboxamide], the inhibition at 5 µM at ARAF is less than 79%; against BRAF, no less than 95%; at BRK, 80 to 89%; on CSF1R it was 90 to 94%; at DDR1, no less than 95%; on FGR, 80 to 89%. In addition, the inhibition at 5 µM against KDR is less than 79%; against KIT it was 90 to 94%; against LCK, no less than 95%; against LYNb it was no less than 95%; on MNK2 it was less than 79%; on PDGFRb it was no less than 95%. The inhibition at 5 µM on PKCb1 was less than 79%; against RET, 90 to 94%; on SGK2 it was 90 to 94%; on SRC it was 90 to 94%; on TNIK, less than 79%; at YES, 80 to 89%. For the same molecule, the inhibition at 5 µM was less than 79% against ZAK, 90 to 94% against p38a and 80 to 89% on p38b.

Take `CNC(=O)c1cc(Oc2ccc(F)c(NC(=O)c3cc([S+](C)[O-])n(-c4ccc(F)cc4)n3)c2)ccn1` (centres unmarked) [Ex7, 4-(4-fluoro-3-(1-(4-fluorophenyl)-5-(methylsulfinyl)-1H-pyrazole-3-carboxamido)phenoxy)-N-methylpicolinamide]: the inhibition at 5 µM at ARAF is less than 79%; against BRAF, 90 to 94%; against BRK, less than 79%; against CSF1R it was less than 79%; against DDR1 it was less than 79%; on FGR, less than 79%. Also, the inhibition at 5 µM against KDR, against KIT, against LCK, at LYNb, on MNK2 and against PDGFRb was less than 79% each time. Besides, the inhibition at 5 µM against PKCb1, at RET, against SGK2, at SRC, at TNIK and against YES was less than 79% throughout. The inhibition at 5 µM on ZAK, against p38a and at p38b was less than 79% throughout.

On to `COc1cc2nccc(Oc3ccc(NC(=O)c4cc(S(C)(=O)=O)n(-c5ccc(F)cc5)n4)c(F)c3)c2cc1OC` [Ex71, N-(4-((6,7-dimethoxyquinolin-4-yl)oxy)-2-fluorophenyl)-1-(4-fluorophenyl)-5-(methylsulfonyl)-1H-pyrazole-3-carboxamide], for which the IC50 at DDR1 and at LCK was less than 500 nM throughout.

With `COc1cc2nccc(Oc3ccc(NC(=O)c4cc(S(C)(=O)=O)n(-c5ccc(F)cc5)n4)cc3)c2cc1OC` [Ex72, N-(4-((6,7-dimethoxyquinolin-4-yl)oxy)phenyl)-1-(4-fluorophenyl)-5-(methylsulfonyl)-1H-pyrazole-3-carboxamide], on LCK, the IC50 fell in the range of 500 to 1000 nM.

Take `COc1cc2nccc(Oc3ccc(NC(=O)c4cc(S(C)(=O)=O)n(-c5ccc(F)cc5)n4)cc3F)c2cc1OC` [Ex73, N-(4-((6,7-dimethoxyquinolin-4-yl)oxy)-3-fluorophenyl)-1-(4-fluorophenyl)-5-(methylsulfonyl)-1H-pyrazole-3-carboxamide]: the IC50 on DDR1 was less than 500 nM; on LCK, 500 to 1000 nM.
